Test results reported in patent publication US4808711A, “Cephalosporin derivatives” (Sankei Pharmaceutical Co., Ltd., priority 1985, dated 1989).
≈ marks a conversion by molar mass, not a printed value. Read-outs that look alike come from different tables or passages of the source.

Key:
Assay type in all cases: cell-based
S. aureus TASAKI = experiment: MIC, S. aureus TASAKI; conditions: Staphylococcus aureus
Method: (§1) The minimum inhibition concentrations (MIC) of the compounds obtained by the present invention were measured according to the standard method of Japanese Chemotherapy Association.

S. aureus 209P JC-1 = experiment: MIC, S. aureus 209P JC-1; conditions: Staphylococcus aureus; S. aureus 209P JC-1; read-out: MIC
Method: as §1

S. aureus ATCC25923 = experiment: MIC, S. aureus ATCC25923; conditions: Staphylococcus aureus; S. aureus ATCC25923; read-out: MIC
Method: as §1

S. aureus Smith = experiment: MIC, S. aureus Smith; conditions: Staphylococcus aureus, read-out: MIC
Method: as §1

S. epidermidis ATCC14990 = experiment: MIC, S. epidermidis ATCC14990; conditions: Staphylococcus epidermidis, read-out: MIC
Method: as §1

S. faecalis IFO3826 = experiment: MIC, S. faecalis IFO3826; conditions: Enterococcus faecalis, read-out: MIC
Method: as §1

B. subtilis ATCC6633 = experiment: MIC, B. subtilis ATCC6633; conditions: Bacillus subtilis; B. subtilis ATCC6633; read-out: MIC
Method: as §1

S. anatum 677-69 = experiment: MIC, S. anatum 677-69; conditions: Salmonella enterica, 67769, read-out: MIC
Method: as §1

S. newport 563 = experiment: MIC, S. newport 563; conditions: Salmonella enterica, read-out: MIC
Method: as §1

S. paratyphi A 144-12-93 = experiment: MIC, S. paratyphi A 144-12-93; conditions: Salmonella enterica, PARATYPHI
Method: as §1

S. paratyphi B = experiment: MIC, S. paratyphi B; conditions: Salmonella enterica, PARATYPHI
Method: as §1

S. paratyphi C 33-76 = experiment: MIC, S. paratyphi C 33-76; conditions: Salmonella enterica, PARATYPHI
Method: as §1

S. typhi 1099-77 = experiment: MIC, S. typhi 1099-77; conditions: Salmonella enterica
Method: as §1

S. typhimurium ATCC13311 = experiment: MIC, S. typhimurium ATCC13311; conditions: Salmonella enterica, read-out: MIC
Method: as §1

S. typhimurium IFO 12529 = experiment: MIC, S. typhimurium IFO 12529; conditions: Salmonella enterica, read-out: MIC
Method: as §1

S. boyadii CDC 2064-59 = experiment: MIC, S. boyadii CDC 2064-59
Method: as §1

S. dysenteriae 4379-60 = experiment: MIC, S. dysenteriae 4379-60; conditions: Shigella dysenteriae, 437960
Method: as §1

[1] = system: S. flexneri 2a CDC 4807-62; experiment: MIC, S. flexneri 2a CDC 4807-62; conditions: Shigella flexneri, read-out: MIC
Method: as §1

S. flexneri Y NCTC 9730 = experiment: MIC, S. flexneri Y NCTC 9730; conditions: Shigella flexneri, NCTC9730, read-out: MIC
Method: as §1

S. sonnei SH72-415 = experiment: MIC, S. sonnei SH72-415; conditions: Shigella sonnei, SH72415, read-out: MIC
Method: as §1

E. coli ATCC25922 = experiment: MIC, E. coli ATCC25922; conditions: Escherichia coli, read-out: MIC
Method: as §1

E. coli NIHJ JC-2 = experiment: MIC, E. coli NIHJ JC-2; conditions: Escherichia coli, NIHJJC2, read-out: MIC
Method: as §1

C. freundii IFO12681 = experiment: MIC, C. freundii IFO12681; conditions: Citrobacter freundii, read-out: MIC
Method: as §1

S. marcescens IFO12648 = experiment: MIC, S. marcescens IFO12648; conditions: Serratia marcescens, read-out: MIC
Method: as §1

E. cloacae ATCC13047 = experiment: MIC, E. cloacae ATCC13047; conditions: Enterobacter cloacae
Method: as §1

K. pneumoniae ATCC27736 = experiment: MIC, K. pneumoniae ATCC27736; conditions: Klebsiella pneumoniae, read-out: MIC
Method: as §1

P. mirabilis IFO3849 = experiment: MIC, P. mirabilis IFO3849; conditions: Proteus mirabilis, read-out: MIC
Method: as §1

P. rettgeri ATCC14505 = experiment: MIC, P. rettgeri ATCC14505; conditions: Providencia rettgeri, read-out: MIC
Method: as §1

P. vulgaris ATCC6380 = experiment: MIC, P. vulgaris ATCC6380; conditions: Proteus vulgaris, read-out: MIC
Method: as §1

P. vulgaris ATCC6398 = experiment: MIC, P. vulgaris ATCC6398; conditions: Proteus vulgaris, read-out: MIC
Method: as §1

P. aeruginosa ATCC9721 = experiment: MIC, P. aeruginosa ATCC9721; conditions: Pseudomonas aeruginosa; P. aeruginosa ATCC9721; read-out: MIC
Method: as §1

P. cepacia ATCC25416 = experiment: MIC, P. cepacia ATCC25416; conditions: Burkholderia cepacia, read-out: MIC
Method: as §1

P. maltophilia ATCC13637 = experiment: MIC, P. maltophilia ATCC13637; conditions: Stenotrophomonas maltophilia
Method: as §1

P. putida ATCC12633 = experiment: MIC, P. putida ATCC12633; conditions: Pseudomonas putida
Method: as §1

P. fluorescens ATCC13525 = experiment: MIC, P. fluorescens ATCC13525; conditions: Pseudomonas fluorescens, read-out: MIC
Method: as §1

Structure (SMILES) | MIC (S. aureus 209P JC-1) [µg/mL] | MIC (S. aureus ATCC25923) [µg/mL] | MIC (S. aureus Smith) [µg/mL] | MIC (S. epidermidis ATCC14990) [µg/mL] | MIC (S. faecalis IFO3826) [µg/mL] | MIC (B. subtilis ATCC6633) [µg/mL] | MIC (S. anatum 677-69) [µg/mL] | MIC (S. newport 563) [µg/mL] | MIC (S. paratyphi A 144-12-93) [µg/mL] | MIC (S. paratyphi B) [µg/mL] | MIC (S. paratyphi C 33-76) [µg/mL] | MIC (S. typhimurium ATCC13311) [µg/mL] | MIC (S. typhimurium IFO 12529) [µg/mL] | MIC (S. boyadii CDC 2064-59) [µg/mL] | MIC (S. dysenteriae 4379-60) [µg/mL] | MIC [1] [µg/mL] | MIC (S. flexneri Y NCTC 9730) [µg/mL] | MIC (S. sonnei SH72-415) [µg/mL] | MIC (E. coli ATCC25922) [µg/mL] | MIC (E. coli NIHJ JC-2) [µg/mL] | also measured
CN(C)CCn1nnnc1SCC1=C(C(=O)O)N2C(=O)[C@@H](NC(=O)Cc3csc(N)n3)[C@H]2SC1 [CTM, cephothiam] | 0.2 (≈ 0.38 µM) | 0.39 (≈ 0.742 µM) | 0.39 (≈ 0.742 µM) | 0.39 (≈ 0.742 µM) | > 100 | 0.39 (≈ 0.742 µM) | 0.2 (≈ 0.38 µM) | 0.39 (≈ 0.742 µM) | 0.39 (≈ 0.742 µM) | 0.2 (≈ 0.38 µM) | 0.05 (≈ 0.0951 µM) | 0.1 (≈ 0.19 µM) | 0.2 (≈ 0.38 µM) | 0.39 (≈ 0.742 µM) | 0.05 (≈ 0.0951 µM) | 0.1 (≈ 0.19 µM) | 0.78 (≈ 1.48 µM) | 0.2 (≈ 0.38 µM) | 0.2 (≈ 0.38 µM) | 0.2 (≈ 0.38 µM) | MIC (S. aureus TASAKI; S. aureus TASAKI, standard method of Japanese Chemotherapy Association, read-out: MIC): 0.39 µg/mL (≈ 0.742 µM); MIC (S. typhi 1099-77; TYPHI): 0.1 µg/mL (≈ 0.19 µM); MIC (C. freundii IFO12681): 3.13 µg/mL (≈ 5.95 µM); MIC (S. marcescens IFO12648): 6.25 µg/mL (≈ 11.9 µM); MIC (E. cloacae ATCC13047): 50 µg/mL (≈ 95.1 µM); MIC (K. pneumoniae ATCC27736): 0.1 µg/mL (≈ 0.19 µM); MIC (P. mirabilis IFO3849): 0.78 µg/mL (≈ 1.48 µM); MIC (P. rettgeri ATCC14505): 3.13 µg/mL (≈ 5.95 µM); MIC (P. vulgaris ATCC6380): > 100 µg/mL; MIC (P. vulgaris ATCC6398): > 100 µg/mL; MIC (P. aeruginosa ATCC9721): > 100 µg/mL; MIC (P. cepacia ATCC25416): 0.39 µg/mL (≈ 0.742 µM); MIC (P. maltophilia ATCC13637): > 100 µg/mL; MIC (P. putida ATCC12633): > 100 µg/mL
CO/N=C(\C(=O)N[C@@H]1C(=O)N2C(C(=O)O)=C(COC(C)=O)CS[C@H]12)c1csc(N)n1 [CTX, cephotaxim] | 0.39 (≈ 0.856 µM) | 0.78 (≈ 1.71 µM) | 3.13 (≈ 6.87 µM) | 0.78 (≈ 1.71 µM) | > 100 | 0.39 (≈ 0.856 µM) | 0.1 (≈ 0.22 µM) | 0.1 (≈ 0.22 µM) | 0.2 (≈ 0.439 µM) | 0.1 (≈ 0.22 µM) | ≤ 0.006 | 0.05 (≈ 0.11 µM) | 0.2 (≈ 0.439 µM) | 0.39 (≈ 0.856 µM) | 0.012 (≈ 0.0263 µM) | 0.025 (≈ 0.0549 µM) | 0.05 (≈ 0.11 µM) | 0.05 (≈ 0.11 µM) | 0.1 (≈ 0.22 µM) | 0.1 (≈ 0.22 µM) | MIC (S. aureus TASAKI): 1.56 µg/mL (≈ 3.43 µM); MIC (S. typhi 1099-77; S. typhi 1099-77, read-out: MIC): 0.1 µg/mL (≈ 0.22 µM); MIC (C. freundii IFO12681): 0.1 µg/mL (≈ 0.22 µM); MIC (S. marcescens IFO12648): 0.2 µg/mL (≈ 0.439 µM); MIC (E. cloacae ATCC13047): 3.13 µg/mL (≈ 6.87 µM); MIC (K. pneumoniae ATCC27736): 0.1 µg/mL (≈ 0.22 µM); MIC (P. mirabilis IFO3849): 0.05 µg/mL (≈ 0.11 µM); MIC (P. rettgeri ATCC14505): 0.1 µg/mL (≈ 0.22 µM); MIC (P. vulgaris ATCC6380): 0.05 µg/mL (≈ 0.11 µM); MIC (P. vulgaris ATCC6398): ≤ 0.006 µg/mL; MIC (P. aeruginosa ATCC9721): 3.13 µg/mL (≈ 6.87 µM); MIC (P. cepacia ATCC25416): 0.78 µg/mL (≈ 1.71 µM); MIC (P. maltophilia ATCC13637): 50 µg/mL (≈ 110 µM); MIC (P. putida ATCC12633): 50 µg/mL (≈ 110 µM); MIC (P. fluorescens ATCC13525): 25 µg/mL (≈ 54.9 µM)
